Test results reported in patent US10597388B2, “Pyridazinone herbicides” (FMC CORPORATION, priority 2014, dated 2020).

Key:
Assay in all cases: Test C greenhouse herbicide test, pre- and postemergence
Format in all cases: in vivo
[1] = test system: soybean (Glycine max)
Procedure, shortened: (§1)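 Greenhouse pots; pre-em on seeded loam:sand blend, post-em on 2–18 cm plants (1–4 leaf) in sphagnum peat/vermiculite medium. Formulation: non-phytotoxic solvent + surfactant. Read-out: visual % control (0–100) vs controls at 13–15 d.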

[2] = test system: barnyardgrass (Echinochloa crus-galli)
Procedure, shortened: as §1

[3] = test system: foxtail, giant (giant foxtail, Setaria faberii)
Procedure, shortened: as §1

[4] = test system: blackgrass (Alopecurus myosuroides)
Procedure, shortened: as §1

[5] = test system: ryegrass, Italian (Italian ryegrass, Lolium multiflorum)
Procedure, shortened: as §1

[6] = test system: nutsedge, yellow (yellow nutsedge, Cyperus esculentus)
Procedure, shortened: as §1

[7] = test system: corn (Zea mays)
Procedure, shortened: as §1

[8] = test system: ragweed (common ragweed, Ambrosia elatior)
Procedure, shortened: as §1

[9] = test system: pigweed (Amaranthus retroflexus)
Procedure, shortened: as §1

[10] = test system: morningglory (Ipomoea coccinea)
Procedure, shortened: as §1

[11] = test system: velvetleaf (Abutilon theophrasti)
Procedure, shortened: as §1

[12] = test system: johnsongrass (Sorghum halepense)
Procedure, shortened: as §1

[13] = test system: galium (catchweed bedstraw, Galium aparine)
Procedure, shortened: as §1

[14] = test system: wheat (winter wheat, Triticum aestivum)
Procedure, shortened: as §1

[15] = test system: lambsquarters (Chenopodium album)
Procedure, shortened: as §1

[16] = test system: waterhemp (common waterhemp, Amaranthus rudis)
Procedure, shortened: as §1

[17] = Postemergence, 31 g ai/ha, 0 to 100 scale (0 no effect, 100 complete control)
[18] = Postemergence, 125 g ai/ha, scale 0 to 100, 0 is no effect, 100 is complete control
[19] = Postemergence, 250 g ai/ha, scale 0 to 100, 0 no effect, 100 complete control, 13 to 15 d
[20] = Preemergence, 31 g ai/ha, scale 0 to 100, 0 is no effect, 100 is complete control
[21] = Preemergence, 62 g ai/ha, scale 0 to 100, 0 is no effect, 100 is complete control
[22] = Preemergence, 125 g ai/ha, scale 0 to 100, 0 is no effect, 100 is complete control
[23] = Preemergence, 250 g ai/ha, scale 0 to 100 (0 no effect, 100 complete control)
[24] = postemergence, 62 g ai/ha, scale 0 to 100, 0 no effect, 100 complete control

## COc1nn(C)c(=O)c(-c2c(C)ccc3ccccc23)c1O [Compound 54]
[1]; [17]
  Soybean plant response rating: 5
[1]; [18]
  Plant response rating, Soybean: 10
[1]; [19]
  Plant response rating, Soybean: 10
[1]; [20]
  Plant response rating, Soybean: 0
[1]; [21]
  Plant response rating, Soybean: 90
[1]; [22]
  Plant response rating, Soybean: 0
[1]; [23]
  Soybean plant response rating: 20
[1]; [24]
  Soybean plant response rating: 5
[2]; [17]
  Barnyardgrass plant response rating: 15
[2]; [18]
  Plant response rating, Barnyardgrass: 55
[2]; [19]
  Plant response rating, Barnyardgrass: 20
[2]; [20]
  Plant response rating, Barnyardgrass: 15
[2]; [21]
  Plant response rating, Barnyardgrass: 35
[2]; [22]
  Plant response rating, Barnyardgrass: 65
[2]; [23]
  Barnyardgrass plant response rating: 85
[2]; [24]
  Barnyardgrass plant response rating: 30
[3]; [17]
  Foxtail, Giant plant response rating: 20
[3]; [18]
  Plant response rating, Foxtail, Giant: 75
[3]; [19]
  Plant response rating, Foxtail, Giant: 90
[3]; [20]
  Plant response rating, Foxtail, Giant: 70
[3]; [21]
  Plant response rating, Foxtail, Giant: 80
[3]; [22]
  Plant response rating, Foxtail, Giant: 75
[3]; [23]
  Foxtail, Giant plant response rating: 90
[3]; [24]
  Foxtail, Giant plant response rating: 55
[4]; [17]
  Blackgrass plant response rating: 15
[4]; [18]
  Plant response rating, Blackgrass: 60
[4]; [19]
  Plant response rating, Blackgrass: 40
[4]; [20]
  Plant response rating, Blackgrass: 50
[4]; [21]
  Plant response rating, Blackgrass: 55
[4]; [22]
  Plant response rating, Blackgrass: 55
[4]; [23]
  Blackgrass plant response rating: 80
[4]; [24]
  Blackgrass plant response rating: 5
[5]; [17]
  Ryegrass, Italian plant response rating: 50
[5]; [18]
  Plant response rating, Ryegrass, Italian: 85
[5]; [19]
  Plant response rating, Ryegrass, Italian: 80
[5]; [20]
  Plant response rating, Ryegrass, Italian: 55
[5]; [21]
  Plant response rating, Ryegrass, Italian: 50
[5]; [22]
  Plant response rating, Ryegrass, Italian: 80
[5]; [23]
  Ryegrass, Italian plant response rating: 90
[5]; [24]
  Ryegrass, Italian plant response rating: 80
[6]; [17]
  Nutsedge, Yellow plant response rating: 10
[6]; [18]
  Plant response rating, Nutsedge, Yellow: 55
[6]; [19]
  Plant response rating, Nutsedge, Yellow: 70
[6]; [20]
  Plant response rating, Nutsedge, Yellow: 5
[6]; [21]
  Plant response rating, Nutsedge, Yellow: 5
[6]; [22]
  Plant response rating, Nutsedge, Yellow: 25
[6]; [23]
  Nutsedge, Yellow plant response rating: 70
[6]; [24]
  Nutsedge, Yellow plant response rating: 35
[7]; [17]
  Corn plant response rating: 0
[7]; [18]
  Plant response rating, Corn: 5
[7]; [19]
  Plant response rating, Corn: 10
[7]; [20]
  Plant response rating, Corn: 0
[7]; [21]
  Plant response rating, Corn: 10
[7]; [22]
  Plant response rating, Corn: 10
[7]; [23]
  Corn plant response rating: 0
[7]; [24]
  Corn plant response rating: 0
[8]; [17]
  Ragweed plant response rating: 90
[8]; [18]
  Plant response rating, Ragweed: 95
[8]; [19]
  Plant response rating, Ragweed: 98
[8]; [20]
  Plant response rating, Ragweed: 90
[8]; [21]
  Plant response rating, Ragweed: 90
[8]; [22]
  Plant response rating, Ragweed: 95
[8]; [23]
  Ragweed plant response rating: 100
[8]; [24]
  Ragweed plant response rating: 95
[9]; [17]
  Pigweed plant response rating: 85
[9]; [18]
  Plant response rating, Pigweed: 98
[9]; [19]
  Plant response rating, Pigweed: 100
[9]; [20]
  Plant response rating, Pigweed: 100
[9]; [21]
  Plant response rating, Pigweed: 100
[9]; [22]
  Plant response rating, Pigweed: 100
[9]; [23]
  Pigweed plant response rating: 100
[9]; [24]
  Pigweed plant response rating: 95
[10]; [17]
  Morningglory plant response rating: 95
[10]; [18]
  Plant response rating, Morningglory: 98
[10]; [19]
  Plant response rating, Morningglory: 100
[10]; [20]
  Plant response rating, Morningglory: 80
[10]; [21]
  Plant response rating, Morningglory: 90
[10]; [22]
  Plant response rating, Morningglory: 95
[10]; [23]
  Morningglory plant response rating: 98
[10]; [24]
  Morningglory plant response rating: 98
[11]; [17]
  Velvetleaf plant response rating: 45
[11]; [18]
  Plant response rating, Velvetleaf: 98
[11]; [19]
  Plant response rating, Velvetleaf: 100
[11]; [20]
  Plant response rating, Velvetleaf: 80
[11]; [21]
  Plant response rating, Velvetleaf: 85
[11]; [22]
  Plant response rating, Velvetleaf: 90
[11]; [23]
  Velvetleaf plant response rating: 95
[11]; [24]
  Velvetleaf plant response rating: 90
[12]; [17]
  Johnsongrass plant response rating: 5
[12]; [18]
  Plant response rating, Johnsongrass: 10
[12]; [19]
  Plant response rating, Johnsongrass: 10
[12]; [20]
  Plant response rating, Johnsongrass: 0
[12]; [21]
  Plant response rating, Johnsongrass: 0
[12]; [22]
  Plant response rating, Johnsongrass: 5
[12]; [23]
  Johnsongrass plant response rating: 10
[12]; [24]
  Johnsongrass plant response rating: 5
[13]; [17]
  Galium plant response rating: 95
[13]; [18]
  Plant response rating, Galium: 98
[13]; [19]
  Plant response rating, Galium: 98
[13]; [20]
  Plant response rating, Galium: 95
[13]; [21]
  Plant response rating, Galium: 95
[13]; [22]
  Plant response rating, Galium: 100
[13]; [23]
  Galium plant response rating: 100
[13]; [24]
  Galium plant response rating: 98
[14]; [17]
  Wheat plant response rating: 0
[14]; [18]
  Plant response rating, Wheat: 0
[14]; [19]
  Plant response rating, Wheat: 0
[14]; [20]
  Plant response rating, Wheat: 0
[14]; [21]
  Plant response rating, Wheat: 0
[14]; [22]
  Plant response rating, Wheat: 0
[14]; [23]
  Wheat plant response rating: 0
[14]; [24]
  Wheat plant response rating: 50
[15]; [17]
  Lambsquarters plant response rating: 95
[15]; [18]
  Plant response rating, Lambsquarters: 100
[15]; [19]
  Plant response rating, Lambsquarters: 100
[15]; [20]
  Plant response rating, Lambsquarters: 80
[15]; [21]
  Plant response rating, Lambsquarters: 85
[15]; [22]
  Plant response rating, Lambsquarters: 80
[15]; [23]
  Lambsquarters plant response rating: 80
[15]; [24]
  Lambsquarters plant response rating: 95
[16]; [17]
  Waterhemp plant response rating: 85
[16]; [18]
  Plant response rating, Waterhemp: 95
[16]; [19]
  Plant response rating, Waterhemp: 95
[16]; [20]
  Plant response rating, Waterhemp: 98
[16]; [21]
  Plant response rating, Waterhemp: 100
[16]; [22]
  Plant response rating, Waterhemp: 100
[16]; [23]
  Waterhemp plant response rating: 100
[16]; [24]
  Waterhemp plant response rating: 90
